This is an account of results in patent publication US8729133B2, “Method for treating cancer” (Cornell University, priority 2006, dated 2014).

In one assay the test system is brain metastases. Kind of assay: Randomized study: whole brain radiotherapy with or without oral L-Arginine hydrochloride in patients with unresectable brain metastases (response, survival). Format: in vivo, human. The method, then: (§1) L-Arginine hydrochloride was orally administered five times a week, Monday to Friday, during the radiation therapy (RT) course at a dose of about 10 grams dissolved/mixed with about 100 ml of water and administered to a patient/host from about 15-55 to about 20-65 minutes before each fraction of RT. Radiation therapy was administered to patients using techniques known to one skilled in the art of treating cancer patients. After administering L-Arginine hydrochloride to a patient as discussed above, change in lactate levels in the tumor cells was monitored by localized ^1H NMR spectroscopy and compared to those who received placebo.
Patients with imagenologically proven brain metastases and histologically proven primary or metastatic cancer were eligible for the study. The eligibility criteria included the following: RPA-RTOG class II, measurable brain lesion/s by contrast-enhanced CT or MRI, absolute granulocyte count >2000/mm^3, hemoglobin […] (patients with lower levels were transfused), normal renal (serum creatinine <1.5 mg/dL and 24-h creatinine clearance >60 mL/min) and hepatic functions (aspartate aminotransferase and alanine aminotransferase <2.5 times the upper limit of normal) and no prior treatment for brain metastases. A neurosurgeon examined all eligible patients and their complimentary studies to determine whether their metastases were resectable. Eligible patients with unresectable metastases were randomized.
The present study was performed in accordance with the ethical standards of the Helsinki Declaration. Within two weeks after the diagnosis of brain metastases, eligible patients were randomly assigned to receive whole brain radiotherapy alone (the control group) or L-Arginine monochlorohydrate (L-Arginine Hydrochloride, L-A-HCl) and whole brain radiotherapy. L-Arginine was orally administered, once a day Monday to Friday, during the radiation therapy (RT) course at a dose of about 10 grams, immediately reconstituted with 100 ml of water and given about 55 to 65 minutes before each fraction of RT.
During RT, all patients were irradiated with ^60Co beams. The whole-brain, of all the individuals enrolled in the study, was treated by two lateral fields to a total dose of 32 Gy in 20 fractions of 1.6 Gy each two times a day with a 6 hours interval between treatments (10 days), followed by a 22.4 Gy boost over the evident lesions with the same fractionation schedule (7 days). The spinal cord dose was limited to 40 Gy.
The baseline evaluation included a complete history and physical examination, brain contrast-enhanced CT scans and/or MRI scans, chest radiographs, blood counts, blood chemistry and electrocardiography. A Mini Mental Status Exam (MMSE) was performed for screening intellectual impairment. During the treatment, patients were to be seen three times a week, then weekly for up to one month after finishing radiotherapy, and then monthly until the patient died. All patients were followed up, by the radiation and medical oncology research physicians, without further treatment.
The following criteria defined radiological response and progression. Complete response was defined as a disappearance of all brain lesions seen on contrast-enhanced CT or MRI scans for at least 1 month. Partial response required at least a 50% decrease in brain lesions for at least 1 month. Stable disease was defined as any brain lesion with shrinkage less than 50% or growth less than 25%. Disease progression was defined as any brain lesion in the brain that enlarged more than 25% or any new brain lesion. For measurable disease, standard bi-perpendicular diameters of the two-dimensional tumor image at maximum dimension were applied.
The following criteria defined symptomatic response and progression. Complete response was defined as disappearance of all neurological-related signs or symptoms seen during a physical exam for at least 1 month, with stable or decreasing steroid dose. […]

Assay [1] concerns lactate levels in brain metastases tumors. Kind of assay: Tumor lactate determination by localized 1H MR spectroscopy before and after oral L-Arginine. Format: in vivo, human. The method, then:
as §1
Single-voxel MR spectroscopic data were obtained by using a double-SE point-resolved spectroscopy (PRESS) sequence with one-pulse water signal suppression mainly from metabolically active fleshy parts (contrast-enhanced areas) of the lesions, while avoiding contamination from scalp fat. Appropriate automatic shimming and water suppression were achieved by using 4-8-Hz line width, 1-kHz spectral width, and the automated software developed by the manufacturer. Spectroscopic data from cubic volumes of 1.5×1.5×1.5-2×2×3 cm were obtained by using the PRESS sequence with 1500/135 ms (TR/TE), 128-256 averages, 1024 data points, and 4000-Hz spectrum width. In most examinations, a voxel size of 2×2×2 cm3 was employed.
The time domain signal intensity was apodized and processed to remove the residual water signal. Post-processing of the spectroscopic data consisted of frequency shift and phase and linear baseline corrections after Fourier transformation. […] Lactate (Lac) peak was calculated at 1.35 ppm (an inverted β-methyl doublet). […] Lactate values were calculated automatically from the area under the peak by using the standard commercial software program provided by the manufacturer.
L-A-HCl was administered (as stated) to 30 patients with unresectable brain metastases. […] Patients were assessed by brain NMR and/or TC (to asses tumor response) and proton magnetic spectroscopy (to determine the metabolic profile of tumors). […]

Setting [2] is: 30 patients with unresectable brain metastases vs 30 placebo.

`Cl.N=C(N)NCCC[C@H](N)C(=O)O` [L-Arginine, S(+)-2-Amino-5-[(aminoiminomethyl)amino]pentanoic acid monohydrochloride]: in the assay with brain metastases (setting [2]), the “survival compared to placebo” value is reported as “higher” and the “tumoral response rates compared to placebo” value was “higher”. In addition, in the assay on brain metastases (RT-Arginine n = 22), the “Overall Response: Complete” value is reported as 6 number of patients, the “Overall Response: Partial” value is recorded as 13 number of patients, the “Overall Response: Stable Disease” value is on record as 2 (9%) number of patients (%) and the “Radiologic Response: Complete” value is on record as 6 number of patients. Also, in the assay on brain metastases (RT-Arginine n = 22), the “Radiologic Response: Partial” value was 13 number of patients, the “Radiologic Response: Progressive Disease” value was 0 number of patients, the “Radiologic Response: Stable Disease” value is reported as 2 (9%) number of patients (%) and the “Symptomatic Response: Complete” value is 20 number of patients. In addition, in the assay with brain metastases (RT-Arginine n = 22), the “Symptomatic Response: Partial” value is 1 number of patients, the “Symptomatic Response: Progressive Disease” value was 0 (0%) number of patients (%) and the “Symptomatic Response: Stable Disease” value is 1 (5%) number of patients (%). For the same compound, the “Overall Response: Total responses” value in the assay with brain metastases (RT-Arginine n = 22, ECOG response guidelines) was 18 (81%) number of patients (%). Also, the “Symptomatic Response: Total responses” value in the assay with brain metastases (RT-Arginine n = 22, about 10 grams orally before each RT fraction) is listed as 21 (95%) number of patients (%). Besides, in the assay on brain metastases (RT-Arginine n = 22, contrast-enhanced CT or MRI), the “Radiologic Response: Total responses” value was 18 (81%) number of patients (%). In the assay on brain metastases (RT-Arginine n = 22, not assessed counted as progressive), the “Overall Response: Progressive Disease” value is recorded as 1 (5%) number of patients (%). In addition, the “Radiologic Response: Not assessed” value in the assay with brain metastases (RT-Arginine n = 22, patients without follow-up scan) is on record as 1 (5%) number of patients (%). In addition, in the assay with brain metastases (patients with brain metastases, about 10 grams L-Arginine orally, Kaplan-Meier (FIG. 1), placebo 2 months), the median survival time amounted to 8 months. For the same compound, the “metabolic pattern of the tumors by spectroscopy” value in assay [1] (about 10 grams orally, in about 60 minutes) is recorded as “favorably modified”. The “drop of lactate levels in tumors” value in assay [1] (brain metastases, about 60 minutes after about 10 grams orally, NMR (FIG. 2), placebo about 10%) was “about 50%”. For the same compound, the “lactate peak in tumor NMR spectrum after vs before administration” value in assay [1] (brain metastasis, about 60 minutes after about 10 grams orally) is “decrease”.
